In article PMC3905752 (Nature chemical biology, 2013):

Assays:
Type in all cases: biochemical
Cdc34A^Glu133Arg [1] = target: Cdc34A^Glu133Arg (Homo sapiens, UniProt P49427, E133R); experiment: Sic1-SCF^Cdc4 ubiquitination assay with Cdc34A^Glu133Arg mutant; details: Cdc34A^Glu133Arg mutant with Ub^Arg42Glu mutant
Cdc34A^Glu133Arg [2] = target: T1, Cdc34A^Glu133Arg (Homo sapiens, UniProt P49427, E133R); experiment: as above; details: Cdc34A^Glu133Arg mutant, wild type ubiquitin
T1 sequence (P49427 1-236 E133R): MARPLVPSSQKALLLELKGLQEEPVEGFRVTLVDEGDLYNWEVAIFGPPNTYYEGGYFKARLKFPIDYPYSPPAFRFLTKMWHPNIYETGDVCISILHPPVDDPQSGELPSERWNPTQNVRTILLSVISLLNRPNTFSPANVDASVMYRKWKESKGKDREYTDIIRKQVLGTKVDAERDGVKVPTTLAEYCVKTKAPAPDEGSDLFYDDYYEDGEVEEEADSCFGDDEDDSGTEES

[3] = target: ubiquitin~Cdc34A thioester (Homo sapiens, UniProt P0CG48+P49427, K48R); experiment: Spontaneous hydrolysis of the ubiquitin~Cdc34A^FL thioester; details: 100 μM CC0651

## COCC(=O)N[C@@H](Cc1ccc(-c2cc(Cl)cc(Cl)c2)cc1)[C@H](O)[C@@H](O)C(=O)O [CC0651, (2R,3S,4S)-5-(3′,5′-Dichloro-[1,1′-biphenyl]-4-yl)-2,3-dihydroxy-4-(2 methoxyacetamido)pentanoic acid]
Cdc34A^Glu133Arg [1]
  Sensitivity of Sic1 ubiquitination to CC0651: restored
Cdc34A^Glu133Arg [2]
  Sensitivity of Sic1 ubiquitination to CC0651: insensitivity
[3]
  Effect on hydrolysis of the ubiquitin~Cdc34A thioester to water: inhibited
